Results from patent US20080262108A1, “Method” (priority 2004, published 2008).

Assays:
CEL [1] = assay: CEL expression at the protein level in treated macrophages (Western blot); format: cell-based, human; conditions: monocyte-derived macrophages cultured for 7 days, treated for 24 hours; LPS 1 μg/ml, IFN-γ 200 U/ml, oxLDL 50 μg protein/ml; cells from four donors; FIG. 4B
Experimental: Macrophage cell culture. Mononuclear cells were isolated through a Ficoll-Hypaque discontinuous gradient (Boyum et al. 1976) from buffy coats obtained from the local blood bank (Sahlgrenska University Hospital, Göteborg, Sweden). The cells were resuspended in RPMI 1640 medium (PM Laboratories GmbH, Pasching, Austria) supplemented with 2 mmol/l glutamine, 2 mmol/l nonessential amino acids, 100 U/ml penicillin, 100 μg/ml streptomycin, and 20 mmol/l sodium pyruvate. Monocytes were obtained by allowing cells to adhere to plastic for 60 min at 37° C. Non-adhered cells were removed by washing with PBS and the adhered monocytes were used immediately or after 4 hours for experiments or left to differentiate into macrophages in supplemented RPMI1640 containing 20% heat-inactivated human serum for up to 9 days. Macrophages were then approximately 95% pure, as judged by flow cytometry. […] The viability of cells was >95% in all incubations, as determined by Trypan blue exclusion.
Exposure of macrophages to oxidatively modified LDL. […] Protein concentration of lipoproteins was determined with the BioRad protein assay using γ-globulin as standard.
Western blot analysis. […] The primary antibodies were detected with POD-conjugated secondary IgG and ECL™ Western Blotting Detection Reagents (Amersham Biosciences), visualized on ECL™ films (Amersham Biosciences).

CEL [2] = assay: CEL expression at the mRNA level in treated macrophages (RT-PCR); format: cell-based, human; conditions: monocyte-derived macrophages cultured for 7 days, treated for 24 hours; LPS 1 μg/ml, IFN-γ 200 U/ml, oxLDL 50 μg protein/ml; cells from four donors; FIG. 4C
Experimental: Macrophage cell culture. Mononuclear cells were isolated through a Ficoll-Hypaque discontinuous gradient (Boyum et al. 1976) from buffy coats obtained from the local blood bank (Sahlgrenska University Hospital, Göteborg, Sweden). The cells were resuspended in RPMI 1640 medium (PM Laboratories GmbH, Pasching, Austria) supplemented with 2 mmol/l glutamine, 2 mmol/l nonessential amino acids, 100 U/ml penicillin, 100 μg/ml streptomycin, and 20 mmol/l sodium pyruvate. Monocytes were obtained by allowing cells to adhere to plastic for 60 min at 37° C. Non-adhered cells were removed by washing with PBS and the adhered monocytes were used immediately or after 4 hours for experiments or left to differentiate into macrophages in supplemented RPMI1640 containing 20% heat-inactivated human serum for up to 9 days. Macrophages were then approximately 95% pure, as judged by flow cytometry. For experiments the cells were incubated for 24 h with supplemented RPMI1640 (pH 7.4) with 1 μg/mL lipopolysaccaride (LPS), interferon-gamma (γ-IFN) 200 U/mL (Sigma Aldrich, Stockholm, Sweden). The viability of cells was >95% in all incubations, as determined by Trypan blue exclusion.
Exposure of macrophages to oxidatively modified LDL. […] Protein concentration of lipoproteins was determined with the BioRad protein assay using γ-globulin as standard. […]

Molecule | CEL expression at the protein level (CEL [1]) | CEL expression at the mRNA level (CEL [2])
lipopolysaccharide [LPS] | could not detect any consistent increase or decrease in CEL expression | could not detect any consistent increase or decrease in CEL expression
interferon-gamma (protein, UniProt P01579 24-161, looked up, interferon-gamma (Sigma Aldrich) used as stimulus on macrophages) Interferon gamma: QDPYVKEAENLKKYFNAGHSDVADNGTLFLGILKNWKEESDRKIMQSQIVSFYFKLFKNFKDDQSIQKSVETIKEDMNVKFFNSNKKKRDDFEKLTNYSVTDLNVQRKAIHELIQVMAELSPAAKTGKRKRSQMLFRG | could not detect any consistent increase or decrease in CEL expression | could not detect any consistent increase or decrease in CEL expression
